The numbers were not newly measured in patent US20120015968A1, “USE OF PYRIMIDYLAMINOBENZAMIDE DERIVATIVES FOR THE TREATMENT OF DISORDERS MEDIATED BY THE LEUCINE ZIPPER-AND STERILE ALPHA MOTIF-CONTAINING KINASE (ZAK)” (NOVARTIS AG, priority 2009, published 2012), which cites them from elsewhere.

pIC50: −log10 of the molar value.

The target of the data set is ZAK (Homo sapiens, UniProt Q9NYL2). Conditions: biotinylated myelin basic protein as substrate; U. Rix et al, Leukemia (2010) 24, 44-50, p. 48; read-out: IC50 of inhibition of ZAK activity.
Sequence of ZAK (Q9NYL2 whole entry): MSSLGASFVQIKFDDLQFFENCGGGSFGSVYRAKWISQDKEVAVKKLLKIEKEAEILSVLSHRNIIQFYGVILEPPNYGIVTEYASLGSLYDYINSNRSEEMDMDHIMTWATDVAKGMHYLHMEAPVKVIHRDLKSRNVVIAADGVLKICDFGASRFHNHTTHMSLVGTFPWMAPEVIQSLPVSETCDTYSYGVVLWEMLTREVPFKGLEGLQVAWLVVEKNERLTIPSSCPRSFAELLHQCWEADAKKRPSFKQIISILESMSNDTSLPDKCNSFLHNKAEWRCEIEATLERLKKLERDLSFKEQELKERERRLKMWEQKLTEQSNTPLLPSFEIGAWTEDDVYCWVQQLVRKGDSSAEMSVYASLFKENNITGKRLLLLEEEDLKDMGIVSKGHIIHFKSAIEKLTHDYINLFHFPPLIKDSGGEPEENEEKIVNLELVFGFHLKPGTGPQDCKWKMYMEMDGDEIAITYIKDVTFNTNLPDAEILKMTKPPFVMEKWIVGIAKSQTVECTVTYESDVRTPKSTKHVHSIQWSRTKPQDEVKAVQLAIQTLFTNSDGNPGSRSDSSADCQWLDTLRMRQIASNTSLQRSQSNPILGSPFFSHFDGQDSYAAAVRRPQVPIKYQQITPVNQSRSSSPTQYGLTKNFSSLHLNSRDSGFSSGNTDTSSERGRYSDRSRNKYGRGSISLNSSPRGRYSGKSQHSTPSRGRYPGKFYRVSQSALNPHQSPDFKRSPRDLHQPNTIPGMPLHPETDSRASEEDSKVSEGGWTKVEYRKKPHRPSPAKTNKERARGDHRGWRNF

`Cc1ccc(NC(=O)c2ccc(CN3CC[C@H](N(C)C)C3)c(C(F)(F)F)c2)cc1Nc1nccc(-c2cncnc2)n1` [INNO-406]: the negative-log IC50 (pIC50) is 7.14.
